Paper PMC6919601, “Identification of Plasmodium dipeptidyl aminopeptidase allosteric inhibitors by high throughput screening” (PLoS ONE, 2019)

Target: T1, DPAP1 (Plasmodium falciparum, UniProt Q8IIJ9)
T1 sequence (Q8IIJ9 370-599 limits assumed): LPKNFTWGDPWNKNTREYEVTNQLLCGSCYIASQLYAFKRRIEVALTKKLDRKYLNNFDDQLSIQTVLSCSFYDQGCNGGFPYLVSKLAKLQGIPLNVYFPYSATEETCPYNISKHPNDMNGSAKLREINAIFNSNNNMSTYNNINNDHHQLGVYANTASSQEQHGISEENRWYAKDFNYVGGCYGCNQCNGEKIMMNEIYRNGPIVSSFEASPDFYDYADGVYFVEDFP
T1 sequence (Q8IIJ9 28-209 limits assumed): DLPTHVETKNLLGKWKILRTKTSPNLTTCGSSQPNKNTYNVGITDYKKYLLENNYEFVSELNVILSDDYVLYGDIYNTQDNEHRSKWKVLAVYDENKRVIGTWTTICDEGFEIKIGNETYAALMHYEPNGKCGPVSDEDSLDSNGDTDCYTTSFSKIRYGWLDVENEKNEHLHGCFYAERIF
T1 sequence (Q8IIJ9 600-700 limits assumed): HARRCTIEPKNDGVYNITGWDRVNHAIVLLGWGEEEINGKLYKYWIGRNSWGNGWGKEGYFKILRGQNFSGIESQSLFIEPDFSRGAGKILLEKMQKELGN
Assay: biochemical
Type: biochemical
Settings: for DPAP Primary hit (Hit = 1): 10 μM HTS, 0 not defined; for inhibition at 10 µM: 10 μM compound, parasite lysates, (PR)2Rho, 30 min end-point, read-out: DPAP1 % Inhibition @ 10 uM

Structure (SMILES) | DPAP Primary hit (Hit = 1) | inhibition at 10 µM [%]
COc1ccc(C2CC(=O)N3CN(Cc4ccccc4)CSC3=C2C#N)cc1OC (stereo not drawn) [SMDC170071, COc1ccc(cc1OC)C2CC(=O)N3CN(Cc4ccccc4)CSC3=C2C#N] | 0 | 7
N#CC1=C2SCN(Cc3ccco3)CN2C(=O)CC1c1ccc(Cl)cc1 (stereo not drawn) [SMDC170081, Clc1ccc(cc1)C2CC(=O)N3CN(Cc4occc4)CSC3=C2C#N] | 0 | 42
N#CC1=C2SCN(Cc3ccccc3)CN2C(=O)CC1c1ccc(Cl)cc1 (stereo not drawn) [SMDC170091, Clc1ccc(cc1)C2CC(=O)N3CN(Cc4ccccc4)CSC3=C2C#N] | 0 | 42
Cc1ccc(C2CC(=O)N3CN(C4CCCCC4)CSC3=C2C#N)cc1 (stereo not drawn) [SMDC170101, Cc1ccc(cc1)C2CC(=O)N3CN(CSC3=C2C#N)C4CCCCC4] | 0 | 26
Cc1ccccc1C1CC(=O)N2CN(Cc3ccco3)CSC2=C1C#N (stereo not drawn) [SMDC170102, Cc1ccccc1C2CC(=O)N3CN(Cc4occc4)CSC3=C2C#N] | 0 | 26
CCc1ccc(C2CC(=O)N3CN(C4CCCCC4)CSC3=C2C#N)cc1 (stereo not drawn) [SMDC170103, CCc1ccc(cc1)C2CC(=O)N3CN(CSC3=C2C#N)C4CCCCC4] | 1 | 65
CCOc1ccc(C2CC(=O)N3CN(C)CSC3=C2C#N)cc1OC (stereo not drawn) [SMDC170104, CCOc1ccc(cc1OC)C2CC(=O)N3CN(C)CSC3=C2C#N] | 0 | 48
N#CC1=C2SCN(Cc3ccccc3)CN2C(=O)CC1c1cccs1 (stereo not drawn) [SMDC170105, O=C1CC(C(=C2SCN(Cc3ccccc3)CN12)C#N)c4cccs4] | 0 | 41
COc1ccc2ccccc2c1C1CC(=O)N2CN(Cc3ccccc3)CSC2=C1C#N (stereo not drawn) [SMDC170106, COc1ccc2ccccc2c1C3CC(=O)N4CN(Cc5ccccc5)CSC4=C3C#N] | 0 | 36
Cc1ccccc1C1CC(=O)N2CN(C3CCCCC3)CSC2=C1C#N (stereo not drawn) [SMDC170112, Cc1ccccc1C2CC(=O)N3CN(CSC3=C2C#N)C4CCCCC4] | 0 | 24
CCc1ccc(C2CC(=O)N3CN(Cc4ccccc4)CSC3=C2C#N)cc1 (stereo not drawn) [SMDC170113, CCc1ccc(cc1)C2CC(=O)N3CN(Cc4ccccc4)CSC3=C2C#N] | 0 | 39
CN1CSC2=C(C#N)C(c3ccccc3)CC(=O)N2C1 (stereo not drawn) [SMDC170114, CN1CSC2=C(C#N)C(CC(=O)N2C1)c3ccccc3] | 0 | 33
CN1CSC2=C(C#N)C(c3ccc(Br)cc3)CC(=O)N2C1 (stereo not drawn) [SMDC170115, CN1CSC2=C(C#N)C(CC(=O)N2C1)c3ccc(Br)cc3] | 0 | 43
COc1ccc2ccccc2c1C1CC(=O)N2CN(C3CCCCC3)CSC2=C1C#N (stereo not drawn) [SMDC170116, COc1ccc2ccccc2c1C3CC(=O)N4CN(CSC4=C3C#N)C5CCCCC5] | 0 | 27
Cc1ccccc1C1CC(=O)N2CN(Cc3ccccc3)CSC2=C1C#N (stereo not drawn) [SMDC170122, Cc1ccccc1C2CC(=O)N3CN(Cc4ccccc4)CSC3=C2C#N] | 0 | 31
CSc1ccc(C2CC(=O)N3CN(C)CSC3=C2C#N)cc1 (stereo not drawn) [SMDC170124, CSc1ccc(cc1)C2CC(=O)N3CN(C)CSC3=C2C#N] | 1 | 75
COc1ccc(Br)cc1C1CC(=O)N2CN(Cc3ccco3)CSC2=C1C#N (stereo not drawn) [SMDC170125, COc1ccc(Br)cc1C2CC(=O)N3CN(Cc4occc4)CSC3=C2C#N] | 1 | 61
CN1CSC2=C(C#N)C(c3cccc(OCc4ccccc4)c3)CC(=O)N2C1 (stereo not drawn) [SMDC170126, CN1CSC2=C(C#N)C(CC(=O)N2C1)c3cccc(OCc4ccccc4)c3] | 1 | 71
N#CC1=C2SCN(C3CCCCC3)CN2C(=O)CC1c1ccccc1F (stereo not drawn) [SMDC170132, Fc1ccccc1C2CC(=O)N3CN(CSC3=C2C#N)C4CCCCC4] | 0 | 38
COc1ccc(OC)c(C2CC(=O)N3CN(Cc4ccco4)CSC3=C2C#N)c1 (stereo not drawn) [SMDC170133, COc1ccc(OC)c(c1)C2CC(=O)N3CN(Cc4occc4)CSC3=C2C#N] | 0 | 7
COc1cccc(C2CC(=O)N3CN(Cc4ccco4)CSC3=C2C#N)c1OC (stereo not drawn) [SMDC170134, COc1cccc(C2CC(=O)N3CN(Cc4occc4)CSC3=C2C#N)c1OC] | 0 | 19

Structure (SMILES) | DPAP Primary hit (Hit = 1) | inhibition at 10 µM [%]
COc1ccc(Br)cc1C1CC(=O)N2CN(C3CCCCC3)CSC2=C1C#N (stereo not drawn) [SMDC170135, COc1ccc(Br)cc1C2CC(=O)N3CN(CSC3=C2C#N)C4CCCCC4] | 1 | 60
CCOc1ccc(C2CC(=O)N3CN(Cc4ccco4)CSC3=C2C#N)cc1 (stereo not drawn) [SMDC170142, CCOc1ccc(cc1)C2CC(=O)N3CN(Cc4occc4)CSC3=C2C#N] | 0 | 43
COc1ccc(OC)c(C2CC(=O)N3CN(C4CCCCC4)CSC3=C2C#N)c1 (stereo not drawn) [SMDC170143, COc1ccc(OC)c(c1)C2CC(=O)N3CN(CSC3=C2C#N)C4CCCCC4] | 0 | 10
COc1cccc(C2CC(=O)N3CN(C4CCCCC4)CSC3=C2C#N)c1OC (stereo not drawn) [SMDC170144, COc1cccc(C2CC(=O)N3CN(CSC3=C2C#N)C4CCCCC4)c1OC] | 0 | 22
COc1ccc(Br)cc1C1CC(=O)N2CN(C)CSC2=C1C#N (stereo not drawn) [SMDC170145, COc1ccc(Br)cc1C2CC(=O)N3CN(C)CSC3=C2C#N] | 1 | 59
COc1cc(C2CC(=O)N3CN(Cc4ccccc4)CSC3=C2C#N)cc(Br)c1O (stereo not drawn) [SMDC170146, COc1cc(cc(Br)c1O)C2CC(=O)N3CN(Cc4ccccc4)CSC3=C2C#N] | 1 | 57
CCOc1ccc(C2CC(=O)N3CN(C4CCCCC4)CSC3=C2C#N)cc1 (stereo not drawn) [SMDC170152, CCOc1ccc(cc1)C2CC(=O)N3CN(CSC3=C2C#N)C4CCCCC4] | 0 | 47
COc1cc(C2CC(=O)N3CN(Cc4ccco4)CSC3=C2C#N)ccc1O (stereo not drawn) [SMDC170153, COc1cc(ccc1O)C2CC(=O)N3CN(Cc4occc4)CSC3=C2C#N] | 0 | 18
COc1ccc(C2CC(=O)N3CN(Cc4ccccc4)CSC3=C2C#N)c(OC)c1 (stereo not drawn) [SMDC170154, COc1ccc(C2CC(=O)N3CN(Cc4ccccc4)CSC3=C2C#N)c(OC)c1] | 0 | 32
COc1ccc(Br)cc1C1CC(=O)N2CN(Cc3ccccc3)CSC2=C1C#N (stereo not drawn) [SMDC170155, COc1ccc(Br)cc1C2CC(=O)N3CN(Cc4ccccc4)CSC3=C2C#N] | 1 | 61
CCOc1ccc(C2CC(=O)N3CN(Cc4ccccc4)CSC3=C2C#N)cc1 (stereo not drawn) [SMDC170162, CCOc1ccc(cc1)C2CC(=O)N3CN(Cc4ccccc4)CSC3=C2C#N] | 0 | 49
COc1cc(C2CC(=O)N3CN(C4CCCCC4)CSC3=C2C#N)ccc1O (stereo not drawn) [SMDC170163, COc1cc(ccc1O)C2CC(=O)N3CN(CSC3=C2C#N)C4CCCCC4] | 0 | -1
COc1cc(C2CC(=O)N3CN(C4CCCCC4)CSC3=C2C#N)cc(OC)c1OC (stereo not drawn) [SMDC170164, COc1cc(cc(OC)c1OC)C2CC(=O)N3CN(CSC3=C2C#N)C4CCCCC4] | 0 | 2
COc1ccc2ccccc2c1C1CC(=O)N2CN(Cc3ccco3)CSC2=C1C#N (stereo not drawn) [SMDC170165, COc1ccc2ccccc2c1C3CC(=O)N4CN(Cc5occc5)CSC4=C3C#N] | 0 | 31
N#CC1=C2SCN(Cc3ccccc3)CN2C(=O)CC1c1cccc2ccccc12 (stereo not drawn) [SMDC170166, O=C1CC(C(=C2SCN(Cc3ccccc3)CN12)C#N)c4cccc5ccccc45] | 1 | 52
CCc1ccc(C2CC(=O)N3CN(Cc4ccco4)CSC3=C2C#N)cc1 (stereo not drawn) [SMDC170172, CCc1ccc(cc1)C2CC(=O)N3CN(Cc4occc4)CSC3=C2C#N] | 0 | 34
CCOc1cc(C2CC(=O)N3CN(Cc4ccccc4)CSC3=C2C#N)ccc1O (stereo not drawn) [SMDC170173, CCOc1cc(ccc1O)C2CC(=O)N3CN(Cc4ccccc4)CSC3=C2C#N] | 0 | 20
COc1cc(C2CC(=O)N3CN(C)CSC3=C2C#N)cc(OC)c1OC (stereo not drawn) [SMDC170174, COc1cc(cc(OC)c1OC)C2CC(=O)N3CN(C)CSC3=C2C#N] | 0 | 4
COc1ccc2ccccc2c1C1CC(=O)N2CN(C)CSC2=C1C#N (stereo not drawn) [SMDC170175, COc1ccc2ccccc2c1C3CC(=O)N4CN(C)CSC4=C3C#N] | 0 | 37
N#CC1=C2SCN(Cc3ccco3)CN2C(=O)CC1c1cccc2ccccc12 (stereo not drawn) [SMDC170176, O=C1CC(C(=C2SCN(Cc3occc3)CN12)C#N)c4cccc5ccccc45] | 0 | 46
Cc1ccc(C2CC(=O)N3CN(CCC(C)C)CSC3=C2C#N)cc1 (stereo not drawn) [SMDC178751, CC(C)CCN1CSC2=C(C#N)C(CC(=O)N2C1)c3ccc(C)cc3] | 0 | 44
